Biological target: T1, Lanosterol synthase (Homo sapiens, UniProt P48449)
T1 sequence (P48449 whole entry): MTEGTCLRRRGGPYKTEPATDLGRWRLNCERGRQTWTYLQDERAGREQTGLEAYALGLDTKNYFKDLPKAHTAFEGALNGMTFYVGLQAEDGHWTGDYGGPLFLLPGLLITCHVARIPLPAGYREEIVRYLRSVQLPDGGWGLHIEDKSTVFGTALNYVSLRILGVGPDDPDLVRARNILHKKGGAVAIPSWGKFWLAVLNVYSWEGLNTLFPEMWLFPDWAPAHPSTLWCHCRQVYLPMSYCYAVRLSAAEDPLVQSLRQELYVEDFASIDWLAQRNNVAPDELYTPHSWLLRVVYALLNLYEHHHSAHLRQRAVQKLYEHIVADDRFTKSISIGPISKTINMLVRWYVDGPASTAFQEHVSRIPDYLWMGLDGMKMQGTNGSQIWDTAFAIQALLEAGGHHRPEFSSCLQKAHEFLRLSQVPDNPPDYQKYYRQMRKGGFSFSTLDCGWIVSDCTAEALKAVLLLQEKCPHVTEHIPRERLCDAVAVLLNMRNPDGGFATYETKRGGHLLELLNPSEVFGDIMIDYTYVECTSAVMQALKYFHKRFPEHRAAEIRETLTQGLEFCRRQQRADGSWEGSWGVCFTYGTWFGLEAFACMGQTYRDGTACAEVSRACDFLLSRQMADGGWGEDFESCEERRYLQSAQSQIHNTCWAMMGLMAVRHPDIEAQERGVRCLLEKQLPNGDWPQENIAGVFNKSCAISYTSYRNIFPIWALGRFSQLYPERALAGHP
Test: Inhibition of oxidosqualene cyclase

`C=CCN(C)CCCCCCOc1ccc2c(-c3ccc(Br)cc3)nn(C)c2c1` gave an IC50 of 19 nM.
